Results taken from patent US6120997A, “Nucleic acid binders having an hydroxyamine motif” (The Scripps Research Institute, priority 1998, dated 2000).
“Also recorded” adds a separate entry of the source. *1 amine or outer side, *2 acyl side, *3 side chain or, on linkers, in order; H or OH if unused. Where a SMILES comes first, the peptide text is derived from it. Bridges are numbered along the chain shown (N, C = ends). [ ]: non-standard residue; d: D form. The star is where a group is joined. X2 = NC1=N[C@@H]([C@H](N[*:1])C(=O)[*:2])C[C@H](O)N1; ΔAla(Z-3-ureido) = NC(=O)N/C=C(\N)C(=O)O; X1 = NCC[C@@H](O)[C@H](N)CC(=O)*; Dap = NC[C@H](N)C(=O)O

What was measured:
[1] = NMR dilution experiments of 1:1 salt complexes in DMSO-d6 (phosphodiester recognition); assay type: binding
Method: [a] NMR dilution experiments with the preformed 1:1 salt complexes were performed in DMSO-d6 at […]; [b] calculated maximum shift at full complexation in ppm.
In order to determine binding constants we prepared defined 1:1 salt complexes and measured their dissociation upon stepwise dilution in [D6 ]DMSO by following the shifts of NH and OH resonances. The chemical shift values of the totally uncomplexed state (o) and the fully complexed state (n) and the stability constant Ka were subsequently determined by curve fitting. […] In all cases, data could be fitted to a 1:1 binding isotherm. […] This order mirrors the order of binding affinities and is consistent with the interpretation that differential involvement of the hydroxyl group in hydrogen bonding provides for the energetic differences in complexation.

Neo16-bd = experiment: SPR binding of aminoglycosides to Neo16-bd aptamer; conditions: HBS-buffer; read-out: Kd, Neo16bd
Method: Conditions: 10 mM HEPES (pH 7.4), 0.1 mM EDTA and NaCl as indicated.
The binding of aminoglycosides to RNA is likely to involve substantial ionic contributions and therefore should be strongly influenced by competing buffer ions. […] We studied the salt dependence of neomycin B binding to RBE3, RBE3-neg and Neo16-bd (FIG. 14) by varying the concentration of NaCl included in the injection buffer (10 mM HEPES, pH 7.4, 0.1 mM EDTA). […] This neomycin binding motif was obtained by in vitro selection under conditions of high ionic strength.
To further improve our understanding of specific aminoglycoside recognition, we have also included an artificial aminoglycoside receptor that was evolved in vitro to recognize an aminoglycoside. A number of RNA aptamers for small molecules have been reported in recent years. Among them are aptamers that recognize the aminoglycosides tobramycin, lividomycin and kanamycin.
For comparison, the corresponding values for AS-wt are also included.
(§1) General Procedures for SPR Binding Studies done in Example 5. Samples were prepared by serial dilutions from stock solutions in RNase free microfuge tubes (Ambion) and were centrifuged at 14000 rpm for degassing. Unless otherwise noted, all binding studies were carried out using HBS buffer (Pharmacia Biosensor AB) which was used as obtained. All procedures for binding studies were automated as methods using repetitive cycles of sample injection and regeneration. Typically, buffer was injected in the first two cycles to establish a stable baseline value. Samples were injected at a flowrate of […] using either the KINJECT command. All aminoglycoside samples were injected from autoclaved 7 mm plastic vials that were capped with pierceable plastic crimp caps. To minimize carry over, samples were injected in order of increasing concentration. The running buffer was identical to the injection buffer.

AS-wt = experiment: SPR binding of aminoglycosides to decoding region A-site model AS-wt; parameters: species or system E. coli; conditions: for RNA binding, affinity or specificity for AS-wt (in words): Example 4
Method: The RNA binding properties of 100-800 were analyzed using a surface plasmon resonance based assay that was recently developed in these laboratories. This assay allows the determination of both affinity and specificity of small molecule-RNA interactions. For the analysis, the compounds were injected over a matrix containing RNA that was immobilized through a biotin tag and the equilibrium binding values were recorded at various concentrations.
Non-linear curve fitting was then used to determine the values of the dissociation constants (KD). The specificity of binding, i.e. the ability to discriminate between different RNA sequences was evaluated by comparing the binding to the target sequence (AS-wt) and the negative control (AS-U1495A). The ratio of KD(AS-U1495A) to KD(AS-wt) was taken to be a representation of the specificity of the binding event.
For the quantitative measurement of aminoglycoside binding to these sequences, we utilized our recently developed SPR-based assay. Biotinylated derivatives of all sequences were prepared by in vitro transcription in the presence of guanosine 5'-monophosphorothioate followed by alkylation with a biotin iodoacetamide derivative. The RNA conjugates were then immobilized onto streptavidin coated SPR-sensorchips for analysis.
In the same manner as illustrated for paromomycin, a panel of aminoglycosides was screened and the results are compiled in the table of FIGS. 46 and 47. In addition to the naturally occuring aminoglycoside antibiotics, some of the compounds in FIG. 46 are synthetically derived, unnatural aminoglycosides. The number of independent determinations for each dissociation constant ranged from 1-3. […] All data were recorded under near physiological salt conditions (HBS-buffer: 150 mM NaCl, 10 mM HEPES, pH7.4, 3.4 mM EDTA) unless noted otherwise. Data points were taken at concentrations ranging from […]. Below this concentration range, surface transport limitations prevent the attainment of equilibrium.
Plasmon resonance and antimicrobial testing for Example 4. Synthesis of the biotinylated RNA and surface plasmon resonance detected binding experiments were performed as described vida supra. Solution conditions: 150 mM NaCl, 10 mM HEPES (pH 7.4), 3.4 mM EDTA. KD determination from the binding curves.
The fitting routine of the program kaleidagraph was used for all calculations. The starting values for a and b were set to 1 and 0 respectively. The number of KD values used in the fitting was adjusted depending on the observed range of equivalents bound but generally varied from 3 to 4.
as §1, with “buffer. Expected values for the equilibrium response of one equivalent of analyte were calculated from the relative molecular weight of the analyte and the immobilized RNA ligand in each flowcells and adjusted with a correction factor of 0.76 which arises from the different molar refractive indices of RNA and the analyte. […]” for “buffer.”

[2] = tested on: Escherichia coli (ATCC 25922); experiment: minimum inhibitory concentration, broth dilution technique; assay type: cell-based; conditions: E. coli, liquid culture
Text: We reasoned that this modification would provide the cleanest test for probing the ionic contribution, since hydrogen bond donor abilities, electronegativity and steric demand are similar for both functional groups. In order to learn how well the model system correlates with in vivo activity, we checked the new compounds for antibacterial activity against three bacterial strains using the disc method (Kirby-Bauer technique). The minimum inhibitory concentrations (MICs) of the compounds were then determined using the broth dilution technique. For antibiotic testing protocols, see: (a) Disk testing protocols: Phillips, I.; Williams, D., in Laboratory Methods in Antimicrobial Chemotherapy, Garrod, L. (ed.) Churchill Livingstone Press: Edinburgh, 1978, pp. 3-30. (b) MIC determination: Waterworth, P. M., in Laboratory Methods in Antimicrobial Chemotherapy, Garrod, L. (ed.) Churchill Livingstone Press: Edinburgh, 1978, pp. 31-40; Barry, A. L. The Antimicrobic Susceptibility Test: Principles and Practice, Lea and Febiger: Philadelphia (1976). (c) Standards: Lorian, V., Antibiotics in Laboratory Medicine (2nd. ed.), Williams and Wilkins: Baltimore, 1986.
FIG. 39A gives the zone diameters measured for the three bacterial strains. The zone diameters measured for the strains with known antibiotics are well within the accepted limits. […] It is worth noting that some testing protocols recommend overnight growth of the cultures, rather than the minimum time required to obtain good growth of the control. MIC values were tested for several of the control antibiotics using overnight growth, and the MIC values observed were 2-4× greater than those observed for 4-6 hour growth.
Minimal Inhibitory Concentration (MIC) testing. E. coli ATCC 25922 was grown in Mueller-Hinton broth (cation-adjusted, BBL Microbiology Systems) to an optical density of approx. 0.5 (absorbance read at 600 nm), then diluted to an OD600 of 0.1. Samples of antibiotic were prepared in Mueller-Hinton broth, typically a series of 2-fold dilutions from […]. […] The absorbance of each sample was read (1=600 nm), and MIC was considered to be the lowest antibiotic concentration at which the absorbance was less than 1% of the no-antibiotic control.

[3] = tested on: bacterial protein synthesis; conditions: cited from earlier work
wt-RRE-II = experiment: SPR binding of aminoglycosides to wt-RRE-II; parameters: species or system HIV-1; conditions: comparison of aminoglycosides
Method: FIGS. 9A and 9B illustrate neomycin B binding to RBE3, RBE3-neg and wt-RRE-II. (A) Semilogarithmic plot. […] Conditions: pH 7.0, 10 mM HEPES, 150 mM NaCl, 0.1 mM EDTA, […].
FIGS. 10A and 10B illustrate paromomycin binding to RBE3, RBE3-neg and wt-RRE-II. (A) Semilogarithmic plot; the dashed line indicates the binding of neomycin B to wt-RRE-II for comparison (B) Scatchard plot. […] Conditions: pH 7.0, 10 mM HEPES, 150 mM NaCl, 0.1 mM EDTA, […].
FIG. 11 illustrates the kinetic stability of wt-RRE-II complexes with neomycin B vs. paromomycin. […] Data points were taken after 1 min of dissociation.
Binding of the aminoglycoside to all three RNA oligonucleotides is observed starting in the low nanomolar concentration range and is non-saturable over the concentration range investigated. […] The high degree of non-specific binding is not surprising considering that aminoglycosides are highly charged polycations that tend to associate nonspecifically with the polyanionic phosphate backbone of RNA. […] Data points corresponding to 0.5 or more equivalents of neomycin B represent equilibrium values and can be analyzed with respect to stoichiometry and affinity of aminoglycoside binding. […] Both sequences bind one molecule of neomycin B with submicromolar affinity followed by weaker association with several additional equivalents of the antibiotic.
Samples were prepared by serial dilutions from stock solutions in RNase free microfuge tubes (Ambion) and were centrifuged at 14000 rpm for degassing. Buffers were filtered through sterile 0.2 &m nylon membranes (Nalgene) under vacuum, except for BIA certified HBS buffer (Pharmacia Biosensor AB) which was used as obtained. All procedures for binding studies were automated as methods using repetitive cycles of sample injection and regeneration. Typically, buffer was injected in the first two cycles to establish a stable baseline value. Samples were injected at a flowrate of 5-10 &L/min using either the KINJECT or the COINJECT command. All aminoglycoside and Rev27 samples were injected from autoclaved 7 mm plastic vials that were capped with pierceable plastic crimp caps. To minimize carry over, samples were injected in order of increasing concentration. The running buffer was identical to the injection buffer, except for the salt dependence study where a single running buffer was used for all injections. Expected values for the equilibrium response of one equivalent of analyte were calculated from the relative molecular weight of the analyte and the immobilized RNA ligand in each flowcells. These values were adjusted by multiplying with a factor of 0.8 or 0.57 for Rev27 or aminoglycosides respectively. These factors arise from the different molar refractive indices of RNA and the analyte and were determined from the Scatchard plot x-axis intercepts of the 1:1 binding isotherms for Rev27 and neomycin B.
Binding Studies with Aminoglycosides.
Neomycin B sulfate (Fluka) was converted to the free base by passing it through Amberlite IRA 400 (OH-- form) and purified by ion exchange chromatography on Dowex 1-X2 100 to remove neomycin C; the purity of neomycin B was verified by NMR in D2 O. Paromomycin sulfate was obtained from Sigma and used as received. Samples were prepared by dilution from 10 mM stock solutions in injection buffer (10 mM HEPES, pH 7.4, 150 mM NaCl, 3.4 mM EDTA). Data points were taken after an association phase of 30 min. A 2 min regeneration pulse of 150 mM Na2 SO4 in injection buffer was used between injections. […]

CO[C@H]1O[C@H](CN)[C@@H](O)[C@H](OCc2ccccc2)[C@H]1OCc1ccccc1 [Compound 2]
dimethylphosphate binding affinity (in words) [1]: higher affinity than bicyclic guanidine 6
selectivity for dimethylphosphate over chloride [1]: 10 fold

NCCO[C@H]1[C@@H](O)[C@H](O[C@@H]2[C@@H](O)[C@H](N)C[C@H](N)[C@H]2O[C@H]2O[C@H](CN)[C@@H](O)[C@H](O)[C@H]2N)O[C@@H]1CO [Compound 500, 3"-O-Ethyl-2-amino ribostamycin]
Kd (Neo16-bd): < 0.01 µM
RNA binding, affinity or specificity for AS-wt (in words) (AS-wt): binding affinity goes up by an order of magnitude but specificity is unaffected; also recorded: significantly lower binding affinities toward the AS wt RNA than neomycin
antibacterial activity / MIC compared with neomycin B (in words) [2]: very nearly the same anti microbial activity as neomycin B

NCCCNCCO[C@H]1[C@@H](O)[C@H](O[C@@H]2[C@@H](O)[C@H](N)C[C@H](N)[C@H]2O[C@H]2O[C@H](CN)[C@@H](O)[C@H](O)[C@H]2N)O[C@@H]1CO [Compound 600, 3"-O-2-N-(3-propylamino)-ethylamino ribostamycin]
Kd (Neo16-bd): < 0.01 µM
RNA binding, affinity or specificity for AS-wt (in words) (AS-wt): diminishing returns on the affinity without affecting the specificity; also recorded: significantly lower binding affinities toward the AS wt RNA than neomycin
antibacterial activity / MIC compared with neomycin B (in words) [2]: very nearly the same anti microbial activity as neomycin B

CN(CC(=O)O)NC(=O)C[C@H](N)C[C@@H](O)CN [Negamycin]
effect on bacterial protein synthesis (in words) [3]: induces miscoding during translation

[H]/N=C(/N)N[C@H]1[C@H](O)[C@@H](O)[C@H](O[C@@H]2O[C@@H](C)[C@](O)(C=O)[C@H]2O[C@@H]2O[C@@H](CO)[C@H](O)[C@@H](O)[C@@H]2NC)[C@@H](N/C(N)=N\[H])[C@@H]1O [Streptomycin]
RNA binding, affinity or specificity for AS-wt (in words) (AS-wt): much reduced binding affinity and no specificity
specificity for AS-wt over negative controls (in words) (AS-wt; Example 5, HBS-buffer): does not show any specificity for AS-wt
relative binding affinity for wt-RRE-II (in words) (wt-RRE-II): weakest

NCC[C@@H](O)[C@H](N)CC(=O)N[C@H]1CNC(=O)[C@H]([C@H]2C[C@H](O)NC(N)=N2)NC(=O)/C(=C/NC(N)=O)NC(=O)[C@H](CO)NC(=O)[C@H](CO)NC1=O [Tuberactinomycin A] (X1-[Dap]SS[ΔAla(Z-3-ureido)][X2]; lactam 1-C)
effect on bacterial protein synthesis (in words) [3]: inhibits both initiation and elongation steps of bacterial protein synthesis
